According to US20200113902A1, “COMPOSITIONS AND METHODS FOR TREATING CANCERS WITH COVALENT INHIBITORS OF CYCLIN-DEPENDENT KINASE 7 (CDK7)” (Syros Pharmaceuticals, Inc., priority 2017, published 2020):

Tests used:
[1] = test system: MCL1 protein in KG1 cells; assay: Western blot, AML cell line KG1; assay type: cell-based; settings: 50 nM
Procedure: Cytotoxic cancer cell lines HCC70 and TOV21G, and cytostatic cancer cell lines T47D and COV318 were seeded in wells of a six-well dish at a density of 1×10^6 cells/well and allowed to adhere overnight. Cells were then treated with 50 nM of Compound 1 for 16 or 24 hours, or with DMSO (0 hours) representing a negative control. Cells were harvested and placed on ice, and resuspended in RIPA lysis buffer supplemented with protease and phosphatase inhibitors. Clarified lysates prepared with 4×LSD running buffer and boiled at 95° C. for 5 minutes. Equivalent amounts of sample (10 μg total protein) were run on a 4-12% Bis-Tris gel and transferred to a PDVF membrane for Western blotting using standard Western blotting protocols. Membranes were blocked with Licor TBS blocking buffer then probed with antibodies for BCL-XL, BCL-2, MCL1, BID, and GAPDH visualized using and Odyssey imager (FIGS. 23A and 23D).
We next explored the expression of MCL1, BCL-XL and BCL2 in four different AML cell lines. MV411, OCI-AML3 and KG1 cells were separately grown and prepared as described in Example 2 for Western blotting, using antibodies specific for BCL2 (FIG. 24A), BCL-XL, MCL-1 and tubulin as an internal control (FIG. 24B).

BR5013 xenografts = assay: TNBC patient-derived xenograft BR5013, tumor volume; assay type: in vivo, mouse; settings: 40 mg/kg or 30 mg/kg i.v. BIW
Procedure: Patient-derived xenograft (PDX) models from TNBC patients (BR5010, BR5013, BR5015, and BR5023) were established in NOD-SCID mice at Crown Bioscience (San Diego, USA). Cryo vials containing tumor cells were thawed and prepared for injection into mice. Cells were washed in PBS, counted, and resuspended in cold PBS at a concentration of 50,000-100,000 viable cells/100 ul. Cell suspensions were mixed with an equal volume of Cultrex ECM and kept on ice during transport to the vivarium. Cells were prepared for injections by withdrawing ECM-Cell mixture into a chilled slip-tip syringe fitted with a 26G 7/8 (0.5 mm×22 mm) needle. The filled syringes were kept on ice to avoid the solidification of ECM. Each mouse was inoculated subcutaneously in the right flank with 200 uL of the cell suspension. Tumor sizes were measured in two dimensions using a caliper, and the volumes were expressed in mm^3 using the formula: V=0.5 a×b^2, where a and b are the longest and shortest diameters of the tumor, respectively. Compound 1 treatment was started when the average tumor size reached 150-200 mm^3.
Compound 1 was formulated in w/v 20% Captisol (pH 4-6) and administered by i.v. twice weekly (BIW) at a final dose of 40 mg/kg or 30 mg/kg in a 10 ml/kg volume. Tumor volumes were measured twice weekly over the course of the study. […]

[2] = test system: gene expression in HCC70 cells; assay: Gene expression profiling via RNA-seq (DESeq2, linear model), HCC70; assay type: cell-based; settings: four hours, JQ1 125 nM, Compound 1 25 nM
Procedure: In addition, we compared the ability of JQ1 alone, Compound 1 alone, and a combination of JQ1 and Compound 1 to modify expression of various genes in two breast cancer cell lines. Two triple-negative breast cancer cell lines (HCC70 and MDA-MB468) were tested. The cell lines were treated with JQ1, Compound 1, the JQ1/Compound 1 combination, or DMSO for four hours, after which gene expression profiling via RNA-seq was performed. JQ1 was administered to the cells at a 125 nM final concentration in both single agent and combination experiments. Compound 1 was administered to the cells at a 25 nM final concentration in both single agent and combination experiments. Each experiment was performed in triplicate. One replicate of MDA-MB-468 treated with single-agent JQ1 was excluded from further analysis due to quality.
We employed DESeq2 (Love et al., Genome Biology, 15(12):550, 2014) to identify changes in gene expression due to the JQ1, Compound 1, and JQ1-Compound 1 combination treatment compared to the control DMSO condition based on the RNA-seq data. Genes resulting in a p-value below 0.01 and an absolute logFoldChange above 0.5 were considered to be differentially expressed. […] The same is true for 1459 of 2414 genes in MDA-MB468.
To identify the genes whose expression is impacted synergistically by the drug combination, we modeled the effect of each drug treatment on expression using a linear model. The expression of each gene after the combination treatment can be thought of as the combined impact of Compound 1, JQ1, and any synergistic interaction between the drug treatments on baseline gene expression. A linear model used to describe this relationship could therefore be represented as:
Gene Expression after combination treatment=Baseline Expression+Compound 1 effect+JQ1 effect+Combination effect (Synergistic Impact)
By fitting the expression data for each gene using this model, we were able to evaluate the effect of each treatment, and identify cases where a synergistic interaction between Compound 1 and JQ1 impacts final gene expression. After fitting the linear model to each gene, the weight and p-value of each term can be evaluated. The combination term's weight signifies the mean change resulting from a synergetic impact on expression, with a negative weight indicating synergistic downregulation. Its associated p-value represents the probability that the combination term is not relevant to final gene expression. Using this approach, we identified 1806 genes in HCC70 and 2205 genes in MDA-MB468 whose expression change in the combination treatment was synergistic and whose associated p-value was less than a threshold cutoff of 0.01. The expression of these synergistic genes could not be explained by an additive effect of Compound 1 and JQ1 alone.

Compound: CN(C)C/C=C/C(=O)Nc1ccc(C(=O)N[C@@]2(C)CCC[C@@H](Nc3ncc(Cl)c(-c4c[nH]c5ccccc45)n3)C2)nc1 [Compound 1, N-((1S,3R)-3-(5-chloro-4-(1H-indol-3-yl)pyrimidin-2-ylamino)-1-methylcyclohexyl)-5-((E)-4-(dimethylamino)but-2-enamido)picolinamide]
- MCL1 protein level (Western blot) [1]: significant reduction in MCL1
- Tumor growth vs untreated historical samples (BR5013 xenografts): little inhibitory effect on tumor growth
- Average Expression (TPM) GATA3 ([2]; DMSO 32.685): 22.404 TPM
- Average Expression (TPM) FOXC1 ([2]; DMSO 40.481): 25.768 TPM
- Average Expression (TPM) TGIF1 ([2]; DMSO 62.523): 68.293 TPM
